From the NIST ThermoML archive (doi:10.1016/j.fluid.2014.01.019)
± gives the expanded uncertainty stated by the source.

Assay: xn = mol fraction of the nth substance listed
Details: 101 kPa, Liquid; for mass density: Vibrating tube method; for speed of sound: Frequency=2 MHz, Linear variable-path acoustic interferometer

Cc1cccc(Cl)c1 [3-chlorotoluene] + OCc1ccccc1
mass density (298.15 K, x2 = 0.0583): 1065.82 ± 0.15 kg/m3 | mass density (298.15 K, x2 = 0.1107): 1064.36 ± 0.15 kg/m3 | mass density (298.15 K, x2 = 0.1903): 1062.34 ± 0.15 kg/m3 | mass density (298.15 K, x2 = 0.2401): 1061.05 ± 0.15 kg/m3 | mass density (298.15 K, x2 = 0.3028): 1059.47 ± 0.15 kg/m3 | mass density (298.15 K, x2 = 0.3703): 1057.61 ± 0.15 kg/m3 | mass density (298.15 K, x2 = 0.4442): 1055.83 ± 0.15 kg/m3 | mass density (298.15 K, x2 = 0.5405): 1053.04 ± 0.15 kg/m3 | mass density (298.15 K, x2 = 0.6285): 1050.88 ± 0.15 kg/m3 | mass density (298.15 K, x2 = 0.7019): 1049.03 ± 0.15 kg/m3 | mass density (298.15 K, x2 = 0.7558): 1047.64 ± 0.15 kg/m3 | mass density (298.15 K, x2 = 0.8109): 1046.31 ± 0.15 kg/m3 | mass density (298.15 K, x2 = 0.8546): 1045.2 ± 0.14 kg/m3 | mass density (298.15 K, x2 = 0.8946): 1044.04 ± 0.14 kg/m3 | mass density (298.15 K, x2 = 0.9498): 1042.49 ± 0.14 kg/m3 | speed of sound (303.15 K, x2 = 0.0583): 1298 ± 8 m/s | speed of sound (303.15 K, x2 = 0.1107): 1316 ± 8 m/s | speed of sound (303.15 K, x2 = 0.1903): 1340 ± 8 m/s | speed of sound (303.15 K, x2 = 0.2401): 1356 ± 8 m/s | speed of sound (303.15 K, x2 = 0.3028): 1374 ± 8 m/s | speed of sound (303.15 K, x2 = 0.3703): 1394 ± 9 m/s | speed of sound (303.15 K, x2 = 0.4442): 1414 ± 9 m/s | speed of sound (303.15 K, x2 = 0.5405): 1440 ± 9 m/s | speed of sound (303.15 K, x2 = 0.6285): 1462 ± 9 m/s | speed of sound (303.15 K, x2 = 0.7019): 1477 ± 9 m/s | speed of sound (303.15 K, x2 = 0.7558): 1487 ± 9 m/s | speed of sound (303.15 K, x2 = 0.8109): 1494 ± 9 m/s | speed of sound (303.15 K, x2 = 0.8546): 1501 ± 9 m/s | speed of sound (303.15 K, x2 = 0.8946): 1504 ± 9 m/s | speed of sound (303.15 K, x2 = 0.9498): 1510 ± 9 m/s | mass density (303.15 K, x2 = 0.0583): 1061.18 ± 0.15 kg/m3 | mass density (303.15 K, x2 = 0.1107): 1059.84 ± 0.15 kg/m3 | mass density (303.15 K, x2 = 0.1903): 1057.86 ± 0.15 kg/m3 | mass density (303.15 K, x2 = 0.2401): 1056.6 ± 0.15 kg/m3 | mass density (303.15 K, x2 = 0.3028): 1055.2 ± 0.15 kg/m3 | mass density (303.15 K, x2 = 0.3703): 1053.44 ± 0.15 kg/m3 | mass density (303.15 K, x2 = 0.4442): 1051.49 ± 0.15 kg/m3 | mass density (303.15 K, x2 = 0.5405): 1049.21 ± 0.15 kg/m3 | mass density (303.15 K, x2 = 0.6285): 1046.99 ± 0.15 kg/m3 | mass density (303.15 K, x2 = 0.7019): 1045.09 ± 0.15 kg/m3 | mass density (303.15 K, x2 = 0.7558): 1043.62 ± 0.15 kg/m3 | mass density (303.15 K, x2 = 0.8109): 1042.35 ± 0.14 kg/m3 | mass density (303.15 K, x2 = 0.8546): 1041.4 ± 0.14 kg/m3 | mass density (303.15 K, x2 = 0.8946): 1040.31 ± 0.14 kg/m3 | mass density (303.15 K, x2 = 0.9498): 1038.83 ± 0.14 kg/m3 | mass density (308.15 K, x2 = 0.0583): 1056.8 ± 0.15 kg/m3 | mass density (308.15 K, x2 = 0.1107): 1055.47 ± 0.15 kg/m3 | mass density (308.15 K, x2 = 0.1903): 1053.42 ± 0.15 kg/m3 | mass density (308.15 K, x2 = 0.2401): 1052.17 ± 0.15 kg/m3 | mass density (308.15 K, x2 = 0.3028): 1050.6 ± 0.15 kg/m3 | mass density (308.15 K, x2 = 0.3703): 1048.89 ± 0.15 kg/m3 | mass density (308.15 K, x2 = 0.4442): 1047.05 ± 0.15 kg/m3 | mass density (308.15 K, x2 = 0.5405): 1044.67 ± 0.15 kg/m3 | mass density (308.15 K, x2 = 0.6285): 1042.53 ± 0.15 kg/m3 | mass density (308.15 K, x2 = 0.7019): 1040.75 ± 0.14 kg/m3 | mass density (308.15 K, x2 = 0.7558): 1039.43 ± 0.14 kg/m3 | mass density (308.15 K, x2 = 0.8109): 1038.15 ± 0.14 kg/m3 | mass density (308.15 K, x2 = 0.8546): 1037.11 ± 0.14 kg/m3 | mass density (308.15 K, x2 = 0.8946): 1036.18 ± 0.14 kg/m3 | mass density (308.15 K, x2 = 0.9498): 1034.89 ± 0.14 kg/m3 | speed of sound (313.15 K, x2 = 0.0583): 1294 ± 8 m/s | speed of sound (313.15 K, x2 = 0.1107): 1304 ± 8 m/s | speed of sound (313.15 K, x2 = 0.1903): 1321 ± 8 m/s | speed of sound (313.15 K, x2 = 0.2401): 1331 ± 8 m/s | speed of sound (313.15 K, x2 = 0.3028): 1343 ± 8 m/s | speed of sound (313.15 K, x2 = 0.3703): 1356 ± 8 m/s | speed of sound (313.15 K, x2 = 0.4442): 1371 ± 8 m/s | speed of sound (313.15 K, x2 = 0.5405): 1389 ± 8 m/s | speed of sound (313.15 K, x2 = 0.6285): 1409 ± 9 m/s | speed of sound (313.15 K, x2 = 0.7019): 1422 ± 9 m/s | speed of sound (313.15 K, x2 = 0.7558): 1435 ± 9 m/s | speed of sound (313.15 K, x2 = 0.8109): 1446 ± 9 m/s | speed of sound (313.15 K, x2 = 0.8546): 1455 ± 9 m/s | speed of sound (313.15 K, x2 = 0.8946): 1462 ± 9 m/s | speed of sound (313.15 K, x2 = 0.9498): 1474 ± 9 m/s | mass density (313.15 K, x2 = 0.0583): 1052.23 ± 0.15 kg/m3 | mass density (313.15 K, x2 = 0.1107): 1050.83 ± 0.15 kg/m3 | mass density (313.15 K, x2 = 0.1903): 1048.82 ± 0.15 kg/m3 | mass density (313.15 K, x2 = 0.2401): 1047.95 ± 0.15 kg/m3 | mass density (313.15 K, x2 = 0.3028): 1046.35 ± 0.15 kg/m3 | mass density (313.15 K, x2 = 0.3703): 1044.54 ± 0.15 kg/m3 | mass density (313.15 K, x2 = 0.4442): 1042.9 ± 0.15 kg/m3 | mass density (313.15 K, x2 = 0.5405): 1040.69 ± 0.14 kg/m3 | mass density (313.15 K, x2 = 0.6285): 1038.52 ± 0.14 kg/m3 | mass density (313.15 K, x2 = 0.7019): 1036.95 ± 0.14 kg/m3 | mass density (313.15 K, x2 = 0.7558): 1035.23 ± 0.14 kg/m3 | mass density (313.15 K, x2 = 0.8109): 1034.05 ± 0.14 kg/m3 | mass density (313.15 K, x2 = 0.8546): 1033.02 ± 0.14 kg/m3 | mass density (313.15 K, x2 = 0.8946): 1032.43 ± 0.14 kg/m3 | mass density (313.15 K, x2 = 0.9498): 1030.91 ± 0.14 kg/m3
